According to patent publication US11479784B2, “Modulation of seed vigor” (Syngenta Participations AG, priority 2012, dated 2022):

How the values were obtained:
seeds of A12 = assay: Sensitivity to low temperatures during germination on paper, pretreatment in GA3 solution; type: in vivo, Brassica oleracea; conditions: pretreatment 10 d 10 C. in the light in 1 mM GA3, then non-germinated seeds 5 days at 20° C. in the light
Description: (§1) Two replicates of 50 seeds per treatment were incubated at 5° C. or 10° C. in the light as described before for a germination test on paper. Incubation was in water or in a 1 mM solution of GA3. After 10 days seeds that had germinated were removed. The boxes with the remaining non-germinated seeds were then placed at 20° C. in the light. After a further 5 days the number of germinated seeds was counted. As a comparison seeds of both A12 and SL101 were germinated at 20° C. in the light without a pretreatment. Germination percentage of these seeds was counted after 10 days.

seeds of SL101 = assay: as above; type: in vivo, Brassica oleracea
Description: as §1

Measured: Percentage of germination of seeds

C=C1C[C@]23C[C@@]1(O)CC[C@H]2[C@@]12C=C[C@H](O)[C@@](C)(C(=O)O1)[C@H]2[C@@H]3C(=O)O [GA3]
100%: seeds of A12 | seeds of SL101; pretreatment 10 d 5 C. in the light in 1 mM GA3, then non-germinated seeds 5 days at 20° C. in the light | seeds of SL101; pretreatment 10 d 10 C. in the light in 1 mM GA3, then non-germinated seeds 5 days at 20° C. in the light
